Measurements taken from article PMC6972920, “Structure-based development of caged dopamine D2/D3 receptor antagonists” (Scientific Reports, 2020).
Entries after “also recorded” stand apart in the source; their conditions may differ. Where two headings read alike, the source gives them in different places. Each block holds one molecule with its values, some of them ahead of it.

Tests used:
[1] = target: T1, human serotonin 5-HT2A receptor (Homo sapiens, UniProt P28223); assay: Competition binding, [3H]ketanserin, HEK293T membranes; conditions: ± SD of two experiments
T1 construct: expressed in transfected cells; host or cells: HEK293T cells, transient transfection

[2] = target: human dopamine receptor subtype D2S (Homo sapiens, UniProt P14416); assay: Radioligand displacement, [3H]spiperone, CHO cell membranes; type: binding
[3] = target: T2, human dopamine D1 receptor (Homo sapiens, UniProt P21728); assay: Competition binding, [3H]SCH23390, HEK293T membranes
T2 construct: expressed in transfected cells; host or cells: HEK293T cells, transient transfection

D2 and D3 receptors = assay: Radioligand binding, summary over D2 and D3 subtypes; parameters: species or system human; conditions: range over D2L, D2S, D3, stated in text
[4] = target: T3, human adrenergic α1A receptor (Homo sapiens, UniProt P35348); assay: Competition binding, [3H]prazosin, HEK293T membranes; conditions: ± SD of two experiments
T3 construct: expressed in transfected cells; host or cells: HEK293T cells, transient transfection
T3 sequence (P35348 1-466): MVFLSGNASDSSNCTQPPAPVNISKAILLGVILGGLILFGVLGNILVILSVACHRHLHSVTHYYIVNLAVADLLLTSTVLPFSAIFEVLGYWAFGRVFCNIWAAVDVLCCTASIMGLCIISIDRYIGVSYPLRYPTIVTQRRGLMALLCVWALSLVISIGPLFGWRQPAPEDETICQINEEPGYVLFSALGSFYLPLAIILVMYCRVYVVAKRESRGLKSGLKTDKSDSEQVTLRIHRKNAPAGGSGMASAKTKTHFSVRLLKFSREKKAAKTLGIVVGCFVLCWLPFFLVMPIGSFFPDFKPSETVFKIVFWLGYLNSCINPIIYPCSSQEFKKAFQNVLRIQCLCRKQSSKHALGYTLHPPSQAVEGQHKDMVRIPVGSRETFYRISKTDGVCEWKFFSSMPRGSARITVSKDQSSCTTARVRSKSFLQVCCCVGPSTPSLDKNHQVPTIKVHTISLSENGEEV

[5] = Compound stability and photolysis in aqueous buffer monitored by HPLC; type: physicochemical; conditions: for behaviour upon illumination with λp = 365 nm (in words): aqueous buffer, LED 365 nm, HPLC; for stability in the absence of light (in words): dark, storage and solution, HPLC/LCMS
Procedure: All measurements were performed in aqueous buffer solution. Compound stability and photolysis was monitored by HPLC. […] Excitation of NB- and DMNB-type cages to trigger photolysis is usually performed with light of 300–400 nm. This absorption profile may limit the wavelength range for cage photolysis, as simultaneous excitation of the core pharmacophore may trigger photolytic degradation of the desired product. We performed photolysis experiments using a near UV light-emitting diode (LED) light source with a peak wavelength of λp = 365 nm and a spectrum half width of Δλ = 9 nm.
No unspecific degradation of the pharmacophore was observed, resulting in constant concentration of the desired product. […] The exposure to ambient light for longer time led to partial photolytic degradation. After incubation in aqueous buffer at ambient light for 1 h, we detected remaining 51% and 62% of the initial concentrations of 4 (MG307) and 5, respectively.
For compound characterization, UV/Vis absorption spectra of samples with c = 0.1 mM in methanol were measured on an Analytik Jena Specord 200 Plus spectrometer (λ = 210–400 nm). Irradiation experiments to trigger photolysis were performed in open HPLC glass vials using a LED (λ = 365 nm, 4.5 V, 0.7 A) to irradiate the samples from top. An aqueous buffer solution served as solvent (50 mM Tris, 1 mM EDTA, 50 mM MgCl2, 100 µg/ml bacitracin, 5 µg/ml soybean trypsin inhibitor), with initial sample concentrations of […] and sample volumes of 100 µl. Photolysis was monitored by HPLC as specified before (eluent system 1). […] Unless specified differently, all experiments were performed in triplicate.

[6] = target: T4, human adrenergic α2A receptor (Homo sapiens, UniProt P08913); assay: Competition binding, [3H]RX821002, HEK293T membranes
T4 construct: expressed in transfected cells; host or cells: HEK293T cells, transient transfection
T4 sequence (P08913 1-465): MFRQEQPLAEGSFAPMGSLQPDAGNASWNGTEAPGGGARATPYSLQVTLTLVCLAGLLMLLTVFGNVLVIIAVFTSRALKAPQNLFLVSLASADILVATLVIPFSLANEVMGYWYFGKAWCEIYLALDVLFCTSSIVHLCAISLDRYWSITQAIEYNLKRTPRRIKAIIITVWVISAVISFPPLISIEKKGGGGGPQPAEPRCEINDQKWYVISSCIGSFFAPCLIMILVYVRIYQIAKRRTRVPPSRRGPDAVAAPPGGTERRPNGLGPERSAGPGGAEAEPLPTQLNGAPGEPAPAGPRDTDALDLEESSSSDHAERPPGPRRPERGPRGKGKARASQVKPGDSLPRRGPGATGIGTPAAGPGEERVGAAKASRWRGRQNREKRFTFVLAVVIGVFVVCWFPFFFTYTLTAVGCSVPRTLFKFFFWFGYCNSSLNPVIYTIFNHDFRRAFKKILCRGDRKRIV

[7] = target: T5, human adrenergic β2 receptor (Homo sapiens, UniProt P07550); assay: Competition binding, [3H]CGP12177, HEK293T membranes; conditions: ± SD of two experiments
T5 construct: expressed in transfected cells; host or cells: HEK293T cells, transient transfection

[8] = target: human dopamine receptor subtype D2L (Homo sapiens, UniProt P14416); assay: Radioligand displacement, [3H]spiperone, CHO cell membranes; type: binding
[9] = target: T6, human dopamine receptor subtype D4.4 (Homo sapiens, UniProt P21917); assay: as above; type: binding
T6 sequence (P21917 1-419): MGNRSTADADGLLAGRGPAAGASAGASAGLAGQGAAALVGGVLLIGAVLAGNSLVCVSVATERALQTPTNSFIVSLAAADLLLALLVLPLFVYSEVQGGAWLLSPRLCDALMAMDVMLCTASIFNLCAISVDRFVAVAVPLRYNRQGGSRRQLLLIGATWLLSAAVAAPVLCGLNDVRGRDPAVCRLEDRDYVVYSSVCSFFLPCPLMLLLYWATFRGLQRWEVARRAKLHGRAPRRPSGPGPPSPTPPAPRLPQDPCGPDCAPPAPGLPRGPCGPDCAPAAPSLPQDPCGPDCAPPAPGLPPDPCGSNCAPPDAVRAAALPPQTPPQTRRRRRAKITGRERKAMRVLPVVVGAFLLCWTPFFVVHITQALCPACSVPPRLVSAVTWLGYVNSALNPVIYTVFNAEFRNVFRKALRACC

[10] = target: T7, human serotonin 5-HT1A receptor (Homo sapiens, UniProt P08908); assay: Competition binding, [3H]WAY600135, HEK293T membranes; conditions: ± SD of two experiments
T7 construct: expressed in transfected cells; host or cells: HEK293T cells, transient transfection
T7 sequence (P08908 1-422): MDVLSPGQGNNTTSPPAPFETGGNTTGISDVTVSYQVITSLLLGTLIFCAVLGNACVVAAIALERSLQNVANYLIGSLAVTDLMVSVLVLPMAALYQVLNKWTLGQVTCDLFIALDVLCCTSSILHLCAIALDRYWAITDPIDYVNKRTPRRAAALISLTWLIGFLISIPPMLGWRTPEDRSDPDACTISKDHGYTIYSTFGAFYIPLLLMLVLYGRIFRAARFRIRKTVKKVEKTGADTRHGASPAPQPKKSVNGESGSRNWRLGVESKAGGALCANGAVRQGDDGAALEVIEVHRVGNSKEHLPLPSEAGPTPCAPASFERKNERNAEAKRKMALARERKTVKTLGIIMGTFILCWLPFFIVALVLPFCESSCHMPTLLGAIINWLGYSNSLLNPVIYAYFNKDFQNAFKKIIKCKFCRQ

[11] = target: T8, human dopamine D5 receptor (Homo sapiens, UniProt P21918); assay: Competition binding, [3H]SCH23390, HEK293T membranes
T8 construct: expressed in transfected cells; host or cells: HEK293T cells, transient transfection

[12] = target: T9, D2S receptor (HEK293T cells co-transfected with D2S and Gαqi) (Homo sapiens, UniProt P14416); assay: Illumination experiment: test compound solution irradiated at 365 nm before addition to cells, quinpirole stimulated IP accumulation; type: cell-based; conditions: controls; 10 nM quinpirole
T9 construct: expressed in transfected cells; host or cells: HEK-293T cells, transient co-transfection
From the text: […]. Mean curves ± SEM of 4–9 individual curves each done in triplicates. […]. Mean curves from 3–4 experiments each done in duplicate. […]. While 4 (MG307) (green bars) is completely released after 10 sec, the uncaging of 5 (red bars) needs 20 sec. […]. Mean bars ± SEM derived from 3–11 individual experiments each done in quintuplicates. Irradiation with a solution of test compound before addition to the cellular test system. […]. Means ± SEM from 6 experiments in quintuplicates.
[…]. Actually, we observed an onset of a strong inverse agonist effect on quinpirole-induced IP accumulation after irradiation of the nitrobenzyl-caged compound 4 (MG307). […] […]. […] To complement uncaging of the test compounds by irradiation of the test compounds before addition to receptor by a biologically more significant experiment, we investigated whether uncaging can also be accomplished directly in the cellular system. […] In fact, quinpirole-promoted IP accumulation was substantially attenuated after irradiation for 10 or 20 sec. […] […]. […] […].
HEK293T cells were transiently co-transfected with D2S and Gαqi. Solutions of the test compounds were irradiated at λ = 365 nm using the same LED as for the photochemistry experiments (see above) for 2, 5, 10 or 20 sec and the test compound was added to the cell system immediately after illumination. […]. Accumulation of IP was determined as described above. […]. Basal activity (buffer) was set as 0%. As a control, quinpirole was irradiated for 20 sec without observing any difference to the effect of the untreated analog. […]. All irradiation experiments were carried out in the dark or under dim light.

[13] = target: T10, dopamine D2S receptor co-expressed with hybrid Gαqi in HEK293T cells (Homo sapiens, UniProt P14416); assay: IP accumulation assay (IP-One HTRF), agonist / inverse agonist effect; type: cell-based
T10 construct: expressed in transfected cells; host or cells: HEK-293T cells, transient co-transfection

[14] = target: human dopamine receptor subtype D3 (Homo sapiens, UniProt P35462); assay: Radioligand displacement, [3H]spiperone, CHO cell membranes; type: binding; conditions: mean ± SEM of 4-9 experiments, compounds 1, 2, 3: ± SD of two experiments
[15] = target: T10, dopamine D2S receptor co-expressed with hybrid Gαqi in HEK293T cells; assay: IP accumulation assay (IP-One HTRF), inhibition of 10 nM quinpirole; type: cell-based
[16] = target: all dopamine receptor subtypes; assay: Radioligand binding, text summary over all dopamine receptor subtypes tested; parameters: species or system human; conditions: range over D2L, D2S, D3, D4.4, stated in text; read-out: Ki values towards all dopamine receptor subtypes (range)
[17] = [3H]spiperone, mean ± SEM of 4-9 experiments, compounds 1, 2, 3: ± SD of two experiments, read-out: Ki value D2S
[18] = [3H]spiperone, mean ± SEM of 4-9 experiments, compounds 1, 2, 3: ± SD of two experiments, read-out: Ki value D2L
[19] = [3H]spiperone, mean ± SEM of 4-9 experiments, compounds 1, 2, 3: ± SD of two experiments, read-out: Ki value D4.4

human dopamine receptor subtype D2L, sequence (P14416 whole entry): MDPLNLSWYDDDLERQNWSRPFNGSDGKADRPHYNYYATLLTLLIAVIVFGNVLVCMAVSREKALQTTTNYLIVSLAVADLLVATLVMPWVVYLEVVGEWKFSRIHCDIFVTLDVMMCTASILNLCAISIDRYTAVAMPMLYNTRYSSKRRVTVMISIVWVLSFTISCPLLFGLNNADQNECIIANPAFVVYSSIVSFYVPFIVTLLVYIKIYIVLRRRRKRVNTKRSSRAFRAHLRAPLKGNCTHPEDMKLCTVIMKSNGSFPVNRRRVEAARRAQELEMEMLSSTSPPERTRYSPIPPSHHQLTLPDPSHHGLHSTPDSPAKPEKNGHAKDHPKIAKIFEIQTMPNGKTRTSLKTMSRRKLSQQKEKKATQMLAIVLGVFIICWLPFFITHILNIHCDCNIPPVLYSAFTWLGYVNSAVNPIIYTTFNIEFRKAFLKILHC
human dopamine receptor subtype D2S, sequence (P14416 1-414 isoform P14416-2): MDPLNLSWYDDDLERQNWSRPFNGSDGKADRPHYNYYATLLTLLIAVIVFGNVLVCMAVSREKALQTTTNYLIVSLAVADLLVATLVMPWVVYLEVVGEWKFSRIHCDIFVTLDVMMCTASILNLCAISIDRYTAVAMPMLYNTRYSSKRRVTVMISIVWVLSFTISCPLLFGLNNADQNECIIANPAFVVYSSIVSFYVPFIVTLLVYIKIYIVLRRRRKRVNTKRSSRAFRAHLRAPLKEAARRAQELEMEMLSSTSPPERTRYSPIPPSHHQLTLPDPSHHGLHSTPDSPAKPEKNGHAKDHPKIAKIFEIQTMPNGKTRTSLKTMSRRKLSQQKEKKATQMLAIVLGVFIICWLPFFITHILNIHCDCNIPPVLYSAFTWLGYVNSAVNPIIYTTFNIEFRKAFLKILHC
T10 sequence (P14416 1-414 isoform P14416-2): as above
human dopamine receptor subtype D3, sequence (P35462 whole entry): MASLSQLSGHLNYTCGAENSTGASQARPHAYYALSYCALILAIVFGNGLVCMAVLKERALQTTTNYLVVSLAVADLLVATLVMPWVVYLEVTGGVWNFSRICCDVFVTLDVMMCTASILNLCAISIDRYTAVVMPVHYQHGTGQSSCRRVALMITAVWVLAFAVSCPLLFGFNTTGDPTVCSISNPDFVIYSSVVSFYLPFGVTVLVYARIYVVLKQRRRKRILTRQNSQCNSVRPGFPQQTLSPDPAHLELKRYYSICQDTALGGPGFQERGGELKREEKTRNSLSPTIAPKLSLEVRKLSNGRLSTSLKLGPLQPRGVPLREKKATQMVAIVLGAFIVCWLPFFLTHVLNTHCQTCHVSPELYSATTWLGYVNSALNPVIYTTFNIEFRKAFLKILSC
T9 sequence (P14416 1-414 isoform P14416-2): as the sequence (P14416 1-414 isoform P14416-2) above
T5 sequence (P07550 whole entry): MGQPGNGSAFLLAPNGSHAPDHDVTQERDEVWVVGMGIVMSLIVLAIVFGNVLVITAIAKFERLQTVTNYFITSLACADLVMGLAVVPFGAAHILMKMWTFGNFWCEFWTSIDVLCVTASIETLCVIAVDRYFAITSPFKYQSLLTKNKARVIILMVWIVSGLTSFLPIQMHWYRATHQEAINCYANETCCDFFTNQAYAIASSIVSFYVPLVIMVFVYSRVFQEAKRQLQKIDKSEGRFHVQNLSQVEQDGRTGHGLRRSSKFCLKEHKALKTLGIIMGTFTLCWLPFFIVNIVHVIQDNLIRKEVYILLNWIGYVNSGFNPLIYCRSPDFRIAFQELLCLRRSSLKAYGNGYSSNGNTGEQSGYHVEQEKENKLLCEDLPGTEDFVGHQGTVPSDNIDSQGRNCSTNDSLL
T8 sequence (P21918 whole entry): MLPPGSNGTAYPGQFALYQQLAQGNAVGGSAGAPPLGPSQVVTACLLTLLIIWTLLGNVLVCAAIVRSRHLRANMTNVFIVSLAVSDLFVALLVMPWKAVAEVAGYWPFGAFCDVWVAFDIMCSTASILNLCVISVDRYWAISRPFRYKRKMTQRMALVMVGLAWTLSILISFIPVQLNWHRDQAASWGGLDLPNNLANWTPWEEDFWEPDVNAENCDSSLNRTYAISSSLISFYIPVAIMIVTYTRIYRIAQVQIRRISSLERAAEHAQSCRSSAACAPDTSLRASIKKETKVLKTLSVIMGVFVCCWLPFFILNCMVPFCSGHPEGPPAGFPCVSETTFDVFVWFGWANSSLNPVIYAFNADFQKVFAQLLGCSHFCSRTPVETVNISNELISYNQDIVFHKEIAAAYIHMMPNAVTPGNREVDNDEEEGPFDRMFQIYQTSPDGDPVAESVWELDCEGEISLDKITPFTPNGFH
T2 sequence (P21728 whole entry): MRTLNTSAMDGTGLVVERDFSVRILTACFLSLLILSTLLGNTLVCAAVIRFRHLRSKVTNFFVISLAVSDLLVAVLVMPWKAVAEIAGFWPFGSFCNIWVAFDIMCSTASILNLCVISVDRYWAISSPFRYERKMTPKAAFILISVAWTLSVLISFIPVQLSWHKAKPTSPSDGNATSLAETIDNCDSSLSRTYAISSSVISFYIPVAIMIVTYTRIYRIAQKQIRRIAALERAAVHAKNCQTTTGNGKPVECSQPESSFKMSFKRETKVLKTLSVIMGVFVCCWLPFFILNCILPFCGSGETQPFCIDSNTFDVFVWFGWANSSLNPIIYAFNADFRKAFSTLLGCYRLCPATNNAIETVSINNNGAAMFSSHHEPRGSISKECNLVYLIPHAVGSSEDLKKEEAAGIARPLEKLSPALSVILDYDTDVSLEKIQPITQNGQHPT
T1 sequence (P28223 whole entry): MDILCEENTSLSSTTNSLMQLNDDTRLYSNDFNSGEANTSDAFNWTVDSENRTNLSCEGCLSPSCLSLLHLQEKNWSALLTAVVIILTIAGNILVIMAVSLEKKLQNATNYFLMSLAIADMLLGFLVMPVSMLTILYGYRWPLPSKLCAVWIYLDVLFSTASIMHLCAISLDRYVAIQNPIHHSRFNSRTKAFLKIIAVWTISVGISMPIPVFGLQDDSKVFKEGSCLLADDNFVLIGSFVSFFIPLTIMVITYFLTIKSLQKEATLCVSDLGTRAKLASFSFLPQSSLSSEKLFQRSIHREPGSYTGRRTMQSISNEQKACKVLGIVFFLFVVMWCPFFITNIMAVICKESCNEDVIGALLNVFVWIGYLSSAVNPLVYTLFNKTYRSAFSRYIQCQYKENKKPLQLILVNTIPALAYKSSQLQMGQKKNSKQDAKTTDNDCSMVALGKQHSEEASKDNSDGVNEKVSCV

- Ki [1]: 220 ± 23 nM
- Ki [2]: 0.28 ± 0.03 nM
- Ki [3]: 23000 ± 5800 nM
- Ki (D2 and D3 receptors): 0.21 to 0.28 nM
- Ki [4]: 81 ± 2.1 nM
- Ki ([6]; [3H]RX821002, ± SD of two experiments): 66 ± 19 nM
- Ki [7]: 4900 ± 210 nM
- Ki [8]: 0.25 ± 0.062 nM
- Ki [9]: 120 ± 19 nM
- Ki [10]: 570 ± 250 nM
- Ki [11]: 46000 ± 1100 nM
SMILES: CCc1cc(Cl)c(OC)c(C(=O)NC[C@@H]2CCCN2CC)c1O [eticlopride]
- behaviour upon illumination with λp = 365 nm (in words) [5]: fast decomposition rate towards light with λp = 365 nm

- behaviour upon illumination with λp = 365 nm (in words) [5]: Rapid photolytic degradation
SMILES: CCc1cc(Cl)c(OC)c(C(=O)NC[C@@H]2CCCN2CC)c1OCc1cc(OC)c(OC)cc1[N+](=O)[O-] [compound 2]
- stability in the absence of light (in words) [5]: not fully stable and slowly decomposed to liberate eticlopride even in the absence of light

- Kd ([6]; HEK293T membranes, read-out: KD of radioligand for α2A): 0.29 nM
SMILES: COC1(C2=NCCN2)COc2ccccc2O1 (centres unmarked) [[^3H]RX801002]

- Ki [2, 17]: 510 ± 120 nM
- Emax ([13]; HEK-293T, relative to full effect of quinpirole (100%) and buffer (0%)): -22 ± 1.8%
- EC50 ([13]; IP accumulation, ± SEM, 3-8 experiments, negative Emax = inverse agonist effect): 480 ± 310 nM
- Ki [14]: 480 ± 120 nM
- Emax ([15]; HEK-293T, in presence of 10 nM quinpirole, relative to quinpirole (100%) and buffer (0%), read-out: inhibitory effect Emax): -17 ± 9.8%
- IC50 ([15]; blocking of the agonist effect of 10 nM quinpirole, ± SEM, 4-6 experiments, read-out: inhibitory effect IC50): 5500 ± 2900 nM
- Ki [8, 18]: 1300 ± 250 nM
- Ki [9, 19]: 7700 ± 1100 nM
SMILES: CCc1ccc(OC)c(C(=O)NC[C@@H]2CCCN2CC)c1OCc1ccccc1 [compound 6]
- effect of irradiation at 365 nm for 20 sec on the compound's effect on IP accumulation (in words) [12]: does not affect; also recorded: no significant effect
- functional properties in IP accumulation assay (in words) ([13]; D2S receptors): inverse agonist properties were observed as well, but potency was low

- Ki [9, 19]: 2800 ± 1200 nM
SMILES: CCc1cc(Cl)c(OC)c(C(=O)NC[C@@H]2CCCN2CC)c1OCc1ccccc1[N+](=O)[O-] [compound 1]
- behaviour upon illumination with λp = 365 nm (in words) [5]: complete photolysis after seconds of irradiation
- stability in the absence of light (in words) [5]: not fully stable and slowly decomposed to liberate eticlopride even in the absence of light

- Ki [16]: 4800 to 22000 nM
- Ki [2, 17]: 6200 ± 3500 nM
- Ki [14]: 5600 ± 5400 nM
- Ki [8, 18]: 4800 ± 3500 nM
SMILES: CCc1cc(Cl)c(OC)c(C(=O)NC[C@@H]2CCCN2CC)c1OCc1ccccc1 [compound 3]
